Test results taken from patent US20240252499A1, “Treatment of uremic pruritus” (CymaBay Therapeutics, Inc., priority 2023, published 2024).
Where two headings read alike, the source gives them in different places.

Experiments:
[1] = test system: IL-31; conditions: NASH patients; cited from earlier work
[2] = Example 6: oral mavodelpar in uremic pruritus; type: in vivo, human; conditions: oral 5, 10, 25, 50 and 100 mg/day; end-stage renal disease on hemodialysis
Method: (§1) Adult subjects with end-stage renal disease on routine hemodialysis are treated orally with doses of 5, 10, 25, 50, and 100 mg/day of mavodelpar. Subjects are permitted their usual other medications. The subjects are assessed before the study, and at intervals during the study, such as every 4 weeks during the study and 4 weeks after the last dose of the mavodelpar therapy, for safety and pharmacodynamic evaluations. At each visit, the subjects are assessed for their disease symptoms and biomarkers, and assessed for uremic pruritus. The subjects also maintain health diaries, which are reviewed at each visit.

[3] = Example 7: topical mavodelpar in uremic pruritus; type: in vivo, human; conditions: topical ointment 1, 2, 5 or 10%; end-stage renal disease on hemodialysis
Method: as §1, with “topically” for “orally”, “an ointment containing 1, 2,” for “doses of”, “or 10%” for “10, 25, 50, and 100 mg/day”, “for” for “for uremic”

[4] = target: T1, PPARa (Homo sapiens, UniProt Q07869); conditions: read-out: ECso for PPARa; cited from earlier work
T1 sequence (Q07869 1-468): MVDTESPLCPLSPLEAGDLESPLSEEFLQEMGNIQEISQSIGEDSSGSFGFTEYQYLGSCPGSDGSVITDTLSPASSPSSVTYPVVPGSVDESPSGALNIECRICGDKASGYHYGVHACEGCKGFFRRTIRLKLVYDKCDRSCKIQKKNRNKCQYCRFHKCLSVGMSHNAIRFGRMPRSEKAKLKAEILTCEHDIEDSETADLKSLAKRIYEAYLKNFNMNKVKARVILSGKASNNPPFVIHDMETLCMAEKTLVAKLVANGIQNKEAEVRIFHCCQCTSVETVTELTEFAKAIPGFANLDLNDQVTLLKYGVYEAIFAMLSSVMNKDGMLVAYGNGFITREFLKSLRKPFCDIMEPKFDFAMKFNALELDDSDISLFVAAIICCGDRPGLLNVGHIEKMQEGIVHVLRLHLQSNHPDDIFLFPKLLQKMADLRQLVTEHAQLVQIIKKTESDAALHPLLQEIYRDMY

[5] = target: T2, PPARy (Homo sapiens, UniProt P37231); conditions: read-out: ECso for PPARy; cited from earlier work
T2 sequence (P37231 1-505): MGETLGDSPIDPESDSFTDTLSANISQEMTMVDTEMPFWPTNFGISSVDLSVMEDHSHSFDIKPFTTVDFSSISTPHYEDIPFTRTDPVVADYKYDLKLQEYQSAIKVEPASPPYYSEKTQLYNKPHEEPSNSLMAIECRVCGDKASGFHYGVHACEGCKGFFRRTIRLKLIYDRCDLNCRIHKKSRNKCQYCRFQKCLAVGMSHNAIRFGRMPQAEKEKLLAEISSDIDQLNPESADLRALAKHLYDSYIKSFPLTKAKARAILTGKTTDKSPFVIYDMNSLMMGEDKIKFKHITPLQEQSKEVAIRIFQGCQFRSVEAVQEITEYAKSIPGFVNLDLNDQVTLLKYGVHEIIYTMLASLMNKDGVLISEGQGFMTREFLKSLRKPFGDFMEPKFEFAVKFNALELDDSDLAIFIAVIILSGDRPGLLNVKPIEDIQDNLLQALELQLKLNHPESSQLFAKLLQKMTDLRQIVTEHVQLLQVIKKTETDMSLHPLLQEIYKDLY

[6] = test system: human IL-31; test: Serum human IL-31 in PXB mice (humanized liver) after 19 days of dosing; type: in vivo, PXB mouse; conditions: gavage once/day for 19 days, 2 h after last dose; day 0 0.13 pg/mL
Text: The PXB mouse (PhoenixBio Co., Ltd., Higashi-Hiroshima, Japan) is a chimeric mouse with a humanized liver, produced by transplanting human hepatocytes into the albumin enhancer/promoter-urokinase-type plasminogen activator complementary DNA transgenic/SCID mouse. The mouse has its liver repopulated by human hepatocytes at a ratio of more than 70%, typically 85-90%, as assessed by measuring the ratio of human albumin to mouse albumin in the blood. The transplanted human hepatocytes express a variety of human messenger RNA (mRNA) and proteins, in a similar manner to those of the normal human liver. […] The study was conducted at PhoenixBio. Male PXB mice aged about 25 weeks, kept in single animal cages and fed CRF1 mouse chow supplemented with AS primate chow for vitamin C supplementation (both from Oriental Yeast Co., Ltd., Tokyo, Japan), were randomized into groups (10/group) based on mean values for body weight and blood human albumin concentration. […] Two hours after the last dose, each mouse was anesthetized with isoflurane, at least 400 μL blood was collected by cardiac puncture, and the mouse sacrificed by exsanguination. The blood samples were left to coagulate at room temperature for at least 5 minutes, then centrifuged at 13200×g for 3 minutes at 4 °C to obtain serum, which was analyzed for human IL-31.

[7] = 12-month trial, PBC patients, cited from earlier work
[8] = test system: IL-31; conditions: humanized liver murine model; cited from earlier work
[9] = target: T3, peroxisome proliferator-activated receptor-α (Homo sapiens, UniProt Q07869); test: Specificity of seladelpar for PPARδ compared with PPARα; type: biochemical; conditions: PPARδ vs PPARα
T3 sequence (Q07869 1-468): T1 sequence (Q07869 1-468)
Text: It is specific (>600-fold and >2500-fold compared with peroxisome proliferator-activated receptor-α and peroxisome proliferator-activated receptor-γ receptors). PPARδ activation stimulates fatty acid oxidation and utilization, improves plasma lipid and lipoprotein metabolism, glucose utilization, and mitochondrial respiration, and preserves stem cell homeostasis.

[10] = test system: IL-31 production by CD4 T cells; test: IL-31 production by CD4 T cells under Th2-promoting conditions; type: cell-based, human; conditions: for IL-31 concentration in culture medium, mean: 10 μM seladelpar
Method: CD4 T cells were enriched from peripheral blood mononuclear cells collected from two normal healthy donors, using the EasySep™ Human CD4+ T Cell Isolation Kit ([…] Technologies). 100,000 CD4 T cells were seeded in a U-bottom 96-well-plate well, and cultured in Th2-promoting conditions promoted by IL-4 or IL-33. […] On day 5 of culture, the anti-CD3/CD28 beads were diluted by adding 150 μL TCM. From days 5 to 13, the cells were cultured in the presence of the same reagents as for days 1 to 4 plus 50 ng/ml IL-2; and the cell culture medium was renewed every 2-3 days by a change of 50% volume of the medium. On day 13 or day 14, the expanded T cells in an individual well were split to four to six wells of 96-well-plate wells; and 5 ng/mL phorbol myristate acetate and 500 ng/mL ionomycin were added for 3 days to re-activate the T cells. The IL-31 concentration in the culture medium of each well was determined using the V-PLEX Human IL-31 Kit (Meso Scale Diagnostics, LLC; Rockville, MD, USA).

[11] = test system: IL-31; test: ENHANCE phase 3 study in PBC (NCT03602560): serum IL-31; type: in vivo, human; conditions: 12 weeks, p<0.001
Text: The trial subjects in this phase 3 study were adult, male or female, with a diagnosis of PBC. Exclusion criteria included AST or ALT≥3×ULN, total bilirubin (TBIL)≥2×ULN, autoimmune hepatitis or a history of chronic viral hepatitis, PSC, the current use of fibrates or simvastatin, the use of colchicine, methotrexate, azathioprine, or systemic steroids in the previous two months, the use of an experimental treatment for PBC, and the use of an experimental or unapproved immunosuppressant. […] Serum IL-31 and its correlation with patient-reported pruritus numerical rating scale (NRS, 0-10) were assessed. Baseline IL-31 levels positively correlated with pruritus NRS; r=0.54, p<0.0001). […] IL-31 compared to subjects with pruritus NRS<4 (7.6 pg/mL [1.2, 14.5] vs 1.2 pg/mL [0.3, 2.8], p<0.0001). At baseline, IL-31 was also correlated with serum total bile acids (r=0.54, p<0.0001) and alkaline phosphatase (ALP) (r=0.44, p<0.0001).

[12] = Studies of oral seladelpar in PBC; type: in vivo, human
[13] = Example 4: oral seladelpar in uremic pruritus; type: in vivo, human; conditions: oral 5, 10, 25 and 50 mg/day; end-stage renal disease on hemodialysis
Method: Subjects are permitted their usual other medications. […] At each visit, the subjects are assessed for their disease symptoms and biomarkers, and assessed for uremic pruritus. The subjects also maintain health diaries, which are reviewed at each visit.

[14] = Example 5: topical seladelpar in uremic pruritus; type: in vivo, human; conditions: topical ointment 1, 2, 5 or 10%; end-stage renal disease on hemodialysis
Method: Subjects are permitted their usual other medications. […] At each visit, the subjects are assessed for their disease symptoms and biomarkers, and assessed for pruritus. The subjects also maintain health diaries, which are reviewed at each visit.

In the case of `O=C(O)c1ccnc(N2CC(O)(c3ccc(OCc4c(-c5c(Cl)cccc5Cl)noc4C4CC4)cc3Cl)C2)c1` [cilofexor], the “effect on IL-31” value [1] is given as “increased IL-31”.
For `Cc1cc(OC/C=C(/c2ccc(F)cc2)c2ccc(C#CCN3CCOCC3)cc2)ccc1OCC(=O)O` [mavodelpar, (4-{[(2E)-3-(4-fluorophenyl)-3-{4-[3-(morpholin-4-yl)prop-1-yn-1-yl]phenyl}prop-2-en-1-yl]oxy}-2-methylphenoxy)acetic acid], the uremic pruritus [2] is listed as “improvement in their uremic pruritus”, the uremic pruritus [3] is listed as “improvement in their uremic pruritus” and the EC50 [4] is listed as over 10 µM. For the same compound, the EC50 [5] was over 10 µM.
In the case of `CC[C@H]1[C@@H](O)[C@@H]2[C@H](CC[C@]3(C)[C@@H]([C@H](C)CCC(=O)O)CC[C@@H]23)[C@@]2(C)CC[C@@H](O)C[C@@H]12` [obeticholic acid], the “serum IL-31 concentration” value [6] is listed as 3.7 pg/mL, the “patients with severe pruritus” value ([7]; OCALIVA 10 mg arm) is listed as 23% and the “patients with severe pruritus” value ([7]; OCALIVA titration arm) is listed as 19%. For the same compound, the “mRNA expression in human hepatocytes” value [8] was “increased”.
In the case of `CCO[C@H](COc1ccc(C(F)(F)F)cc1)CSc1ccc(OCC(=O)O)c(C)c1` [seladelpar, [4-({(2R)-2-ethoxy-3-[4-(trifluoromethyl)phenoxy]propyl}sulfanyl)-2-methylphenoxy]acetic acid], the “specificity compared with peroxisome proliferator-activated receptor-α” value [9] is reported as over 600 fold, the “IL-31 concentration in culture medium, mean” value (“IL-31 concentration … mean” below) ([10]; Donor 1, IL-4 promoted) is reported as 36.00 pg/mL and the “IL-31 concentration … mean” value ([10]; Donor 1, IL-33 promoted) is reported as 10.14 pg/mL. For the same compound, the “IL-31 concentration … mean” value ([10]; Donor 2, IL-4 promoted) was 27.28 pg/mL, the “IL-31 concentration … mean” value ([10]; Donor 2, IL-33 promoted) was 324.05 pg/mL and the “effect on IL-31 production by CD4 T cells” value ([10]; both donors, both promoters, p<0.0001 vs DMSO, Mann-Whitney) was “reduced IL-31 production”. For the same compound, the “serum IL-31 concentration” value [6] was 0.19 pg/mL, the “mean IL-31 level at end of study” value ([11]; 5 mg/day oral, from 3.8 pg/mL at baseline) was 1.7 pg/mL and the “mean IL-31 level at end of study” value ([11]; 10 mg/day oral, from 4.2 pg/mL at baseline) was 1.7 pg/mL. The “efficacy in PBC” value ([12]; oral doses of 5, 10, 50 and 200 mg/day) was “effective in the treatment of PBC”, the “effect on cholestatic pruritus (exacerbation)” value ([12]; oral doses of 5, 10, 50 and 200 mg/day in PBC) was “not to exacerbate cholestatic pruritus” and the “efficacy in cholestatic pruritus associated with PBC” value ([12]; oral doses of 5 and 10 mg/day) was “effective in the treatment of cholestatic pruritus”. For the same compound, the “effect on IL-31” value ([12]; studies in PBC) was “reduce IL-31”, the uremic pruritus [13] was “improvement in their uremic pruritus” and the uremic pruritus [14] was “improvement in their uremic pruritus”.
